Literature values, collected in paper PMC11047177 (ESMO Open, 2024).
Where two headings read alike, the source gives them in different places.

Columns and labels:
[1] = cited from earlier work
[2] = cited from earlier work; remark: listed apart in the source
[3] = advanced solid tumors, non-Hodgkin's lymphoma, or lower-risk myelodysplastic syndrome
[4] = patients with advanced solid tumors

SMILES	TRAE Fatigue [1, 3] [%]	TRAE Nausea [1, 3] [%]	TRAE thrombocytopenia [1, 3] [%]	Preliminary evidence of antitumor activity [1]	Preliminary evidence of antitumor activity [2]	TRAE Anemia [2, 4] [%]	TRAE Dysgeusia [2, 4] [%]	TRAE Fatigue [2, 4] [%]	TRAE Nausea [2, 4] [%]
Nc1nc2cc(CC[C@H]3C[C@@H](n4ccc5c(N)ncnc54)[C@H](O)[C@@H]3O)ccc2cc1Br [JNJ-64619178]	32	39	52	patients achieving PRs					
CC(=O)N1CCC(Nc2cc(C(=O)NC[C@H](O)CN3CCc4ccccc4C3)ncn2)CC1 [GSK3326595]					patients achieving PRs	31	26	39	31
